The text below walks through data of patent publication US20260317324A1, “BIFUNCTIONAL COMPOUNDS FOR DEGRADING BRAF VIA UBIQUITIN PROTEOSOME PATHWAY” (Nurix Therapeutics, Inc., priority 2023, published 2026).

Common to all, as to format: cell-based
One test deals with T1, BRAF G466V (Homo sapiens, UniProt P15056, G466V).
T1 construct: Horizon Discovery (HCT-116 BRAF−/− cells); host or cells: HCT-116 BRAF−/− cells, clone 8, lentiviral transduction
As to the kind of experiment: BRAF HiBiT degradation assay, C-terminal HiBiT-tagged BRAF G466V overexpressed in HCT-116 BRAF−/− cells (clone 8), Nano-Glo HiBiT Lytic assay. The gist of the method: (§1)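 First, the stable HiBiT-tagged cells were plated and incubated for 24 h. Next, compound was added in duplicate as an 11-point series with a 1 μM top concentration. Lytic detection followed, with DMSO-treated parental cells used for background. Finally, DC50 and Obs. Dmax relative to DMSO were derived from the % protein remaining curves.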
In general terms: The HiBiT peptide binds its large partner to form an active luciferase.

A further test has as its target T2, BRAF G469A (Homo sapiens, UniProt P15056, G469A).
T2 construct: Horizon Discovery (HCT-116 BRAF−/− cells); host or cells: HCT-116 BRAF−/− cells, clone 34, lentiviral transduction
As to the kind of experiment: BRAF HiBiT degradation assay, C-terminal HiBiT-tagged BRAF G469A overexpressed in HCT-116 BRAF−/− cells (clone 34), Nano-Glo HiBiT Lytic assay. An outline of the steps: as §1

Another test concerns the target T3, BRAF V600E (Homo sapiens, UniProt P15056, V600E).
T3 construct: endogenous C-terminal HiBiT fusion tag on BRAF V600E allele; endogenous in cells; host or cells: A375 clone 1F10 (CRISPR-Cas9 knock-in of the HiBiT tag; parental A375 from ATCC)
As to the kind of experiment: BRAF HiBiT degradation assay, C-terminal HiBiT-tagged BRAF V600E A375 cells (clone 1F10), Nano-Glo HiBiT Lytic assay. The following applies: for Dmax: A-375. The gist of the method:
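Degradation is measured as loss of HiBiT signal from BRAF V600E tagged at its native locus in A375 cells. Doses span 1 μM to 0.01 nM in half-log steps, in duplicate. Percent remaining is calculated against DMSO controls after subtracting untagged A375 background, and curve fitting yields DC50 and observed Dmax.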

The target in another test is T4, BRAF D594G (Homo sapiens, UniProt P15056, D594G).
T4 construct: Horizon Discovery (HCT-116 BRAF−/− cells); host or cells: HCT-116 BRAF−/− cells, clone 63, lentiviral transduction
As to the kind of experiment: BRAF HiBiT degradation assay, C-terminal HiBiT-tagged BRAF D594G overexpressed in HCT-116 BRAF−/− cells (clone 63), Nano-Glo HiBiT Lytic assay. The gist of the method: as §1

[1] abbreviates: BRAF G466V, DC50 at 50%: fitted conc. at Y=50.
Setting [2] is: HCT-116, BRAF G466V, percentage protein degraded at maximal compound effect relative to DMSO.
[3] abbreviates: Class 2, BRAF G469A, DC50 at 50%: fitted conc. at Y=50.
[4] abbreviates: HCT-116, Class 2, BRAF G469A, percentage protein degraded at maximal compound effect relative to DMSO.
The mark [5] stands for this setting: A375 (BRAF V600E), DC50 at 50%: fitted conc. at Y=50.
Setting [6] is: A375 (BRAF V600E), percentage protein degraded at maximal compound effect relative to DMSO.
The mark [7] stands for this setting: BRAF D594G, DC50 at 50%: fitted conc. at Y=50.
Setting [8] is: HCT-116, BRAF D594G, percentage protein degraded at maximal compound effect relative to DMSO.
Setting [9] is: BRAF G466V (Class 3), HCT-116 BRAF−/− cells, DC50 at 50% degradation.
The mark [10] stands for this setting: BRAF G466V (Class 3), HCT-116 BRAF−/− cells, observed Dmax relative to DMSO control.
Setting [11] is: BRAF G469A (Class 2), HCT-116 BRAF−/− cells, DC50 at 50% degradation.
Setting [12] is: BRAF G469A (Class 2), HCT-116 BRAF−/− cells, observed Dmax relative to DMSO control.
[13] abbreviates: A375 (BRAF V600E, Class 1), DC50 at 50% degradation.
[14] abbreviates: A375 (BRAF V600E, Class 1), observed Dmax, % protein degraded relative to DMSO control.
Where [15] appears, read: BRAF D594G (Class 3), HCT-116 BRAF−/− cells, DC50 at 50% degradation.
Where [16] appears, read: BRAF D594G (Class 3), HCT-116 BRAF−/− cells, observed Dmax relative to DMSO control.

The term DC50 denotes the concentration at which degradation of the target reaches its halfway point. A lower DC50 goes with a more potent degrader. Broadly, the Dmax is the greatest extent of degradation seen.

T2 sequence (P15056 whole entry G469A): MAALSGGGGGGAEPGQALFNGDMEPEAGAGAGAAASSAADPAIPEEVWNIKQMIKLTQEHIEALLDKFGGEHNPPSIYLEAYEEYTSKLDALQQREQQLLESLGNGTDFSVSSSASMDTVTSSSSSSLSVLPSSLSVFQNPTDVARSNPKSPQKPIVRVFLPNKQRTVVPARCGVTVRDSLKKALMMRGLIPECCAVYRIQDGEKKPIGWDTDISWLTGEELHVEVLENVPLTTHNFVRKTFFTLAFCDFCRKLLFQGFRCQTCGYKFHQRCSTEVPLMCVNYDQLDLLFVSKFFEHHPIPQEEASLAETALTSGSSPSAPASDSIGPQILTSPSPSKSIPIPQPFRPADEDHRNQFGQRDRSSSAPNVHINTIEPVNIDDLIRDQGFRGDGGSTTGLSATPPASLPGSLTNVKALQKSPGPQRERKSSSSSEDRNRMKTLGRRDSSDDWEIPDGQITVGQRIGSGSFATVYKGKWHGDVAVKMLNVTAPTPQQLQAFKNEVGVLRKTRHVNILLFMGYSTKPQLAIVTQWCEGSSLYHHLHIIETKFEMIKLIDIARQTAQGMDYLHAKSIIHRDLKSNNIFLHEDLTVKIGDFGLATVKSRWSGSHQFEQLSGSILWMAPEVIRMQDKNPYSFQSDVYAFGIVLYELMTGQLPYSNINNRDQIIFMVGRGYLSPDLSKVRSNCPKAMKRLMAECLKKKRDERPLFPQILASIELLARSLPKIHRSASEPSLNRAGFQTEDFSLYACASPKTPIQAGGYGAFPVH
T3 sequence (P15056 whole entry V600E, the tested form may be a part): as the sequence (P15056 whole entry G469A) above, with A469G, V600E counted along it
T4 sequence (P15056 whole entry D594G): as the sequence (P15056 whole entry G469A) above, with A469G, D594G counted along it
T1 sequence (P15056 whole entry G466V): as the sequence (P15056 whole entry G469A) above, with G466V, A469G counted along it

For `CCN(C)S(=O)(=O)Nc1cccc(-c2nc(C3CCN(C(=O)C4CCN(C(=O)C5CCN(c6ccc(C7CCC(=O)NC7=O)cn6)CC5)CC4)CC3)sc2-c2ccnc(NC(C)C)n2)c1F` (racemic) [Compound 183, Rac-(3S)-3-{6-[4-(4-{4-[4-(3-{[ethyl(methyl)sulfamoyl]amino}-2-fluorophenyl)-5-{2-[(propan-2-yl)amino]pyrimidin-4-yl}-1,3-thiazol-2-yl]piperidine-1-carbonyl}piperidine-1-carbonyl)piperidin-1-yl]pyridin-3-yl}piperidine-2,6-dione], the DC50 was under 10 nM at BRAF G466V (setting [1]), over 500 nM at BRAF G469A (setting [3]), under 10 nM at BRAF V600E (setting [5]) and under 10 nM on BRAF D594G (setting [7]). Moreover, the Dmax on BRAF G466V (setting [2]) was 30 to 70%; on BRAF G469A (setting [4]), 30 to 70%; on BRAF V600E (setting [6]) it was over 70%; at BRAF D594G (setting [8]) it was 30 to 70%.
As for `CCCS(=O)(=O)Nc1cccc(-c2nc(C(C)(C)C)sc2-c2ccnc(Nc3ccc(N4CCN(C(=O)CC5CCN(c6ccc(NC7CCC(=O)NC7=O)cc6)CC5)CC4)c(F)c3)n2)c1F` (racemic) [Compound 46, Rac-N-{3-[2-tert-butyl-5-(2-{[4-(4-{2-[1-(4-{[(3R)-2,6-dioxopiperidin-3-yl]amino}phenyl)piperidin-4-yl]acetyl}piperazin-1-yl)-3-fluorophenyl]amino}pyrimidin-4-yl)-1,3-thiazol-4-yl]-2-fluorophenyl}propane-1-sulfonamide], the DC50 at BRAF G466V (setting [1]) was under 10 nM; at BRAF G469A (setting [3]), over 500 nM; at BRAF V600E (setting [5]), under 10 nM; at BRAF D594G (setting [7]), 50 to 500 nM. The Dmax at BRAF G466V (setting [2]) was 30 to 70%; at BRAF G469A (setting [4]), 30 to 70%; at BRAF V600E (setting [6]), over 70%; on BRAF D594G (setting [8]) it was 30 to 70%.
Regarding `CCN(C)S(=O)(=O)Nc1cccc(-c2cn(-c3ccc(N4CCN(CC5CCN(c6ccc([C@@H]7CCC(=O)NC7=O)cn6)CC5)CC4)c(F)c3)nc2-c2ccncc2)c1F` [Compound 380, (3S)-3-(6-{4-[(4-{4-[4-(3-{[ethyl(methyl)sulfamoyl]amino}-2-fluorophenyl)-3-(pyridin-4-yl)-1H-pyrazol-1-yl]-2-fluorophenyl}piperazin-1-yl)methyl]piperidin-1-yl}pyridin-3-yl)piperidine-2,6-dione], the DC50 at BRAF G466V (setting [9]) was 50 to 500 nM; on BRAF G469A (setting [11]) it was over 500 nM; at BRAF V600E (setting [13]) it was 50 to 500 nM; at BRAF D594G (setting [15]) it was 10 to 50 nM. Besides, the Dmax is 30 to 70% at BRAF G466V (setting [10]), 30 to 70% on BRAF G469A (setting [12]), over 70% at BRAF V600E (setting [14]) and 30 to 70% at BRAF D594G (setting [16]).
For the compound `CCCS(=O)(=O)Nc1cccc(-c2nc(C(C)(C)C)sc2-c2ccnc(Nc3ccc(N4CCN(C(=O)C5CCN(c6ccc(C7CCC(=O)NC7=O)cc6)CC5)CC4)c(F)c3)n2)c1F` (racemic) [Compound 65, Rac-N-(3-{2-tert-butyl-5-[2-({4-[4-(1-{4-[(3R)-2,6-dioxopiperidin-3-yl]phenyl}piperidine-4-carbonyl)piperazin-1-yl]-3-fluorophenyl}amino)pyrimidin-4-yl]-1,3-thiazol-4-yl}-2-fluorophenyl)propane-1-sulfonamide], the DC50 at BRAF G466V (setting [1]) is over 500 nM; on BRAF G469A (setting [3]), over 500 nM; on BRAF V600E (setting [5]) it was under 10 nM; at BRAF D594G (setting [7]), over 500 nM. Moreover, the Dmax at BRAF G466V (setting [2]) is 30 to 70%; at BRAF G469A (setting [4]), 30 to 70%; on BRAF V600E (setting [6]) it was over 70%; on BRAF D594G (setting [8]) it was 30 to 70%.
Consider `CCCS(=O)(=O)Nc1cccc(-c2nc(C3CCC4(CC3)CCN(CC3CCN(c5ccc(C6CCC(=O)NC6=O)cn5)CC3)CC4)sc2-c2ccnc(N)n2)c1F` (racemic) [Compound 260, Rac-N-{3-[5-(2-aminopyrimidin-4-yl)-2-{3-[(1-{5-[(3R)-2,6-dioxopiperidin-3-yl]pyridin-2-yl}piperidin-4-yl)methyl]-3-azaspiro[5.5]undecan-9-yl}-1,3-thiazol-4-yl]-2-fluorophenyl}propane-1-sulfonamide], for which the 50% degradation concentration (DC50) was over 500 nM on BRAF G466V (setting [9]), over 500 nM on BRAF G469A (setting [11]), 10 to 50 nM on BRAF V600E (setting [13]) and over 500 nM on BRAF D594G (setting [15]). In addition, the Dmax on BRAF G466V (setting [10]) is under 30%; at BRAF G469A (setting [12]), under 30%; on BRAF V600E (setting [14]), 30 to 70%; at BRAF D594G (setting [16]), under 30%.
